Source: ChEMBL document CHEMBL4002591 (J Med Chem, 2017)

Columns and labels:
[1] = target: Poly [ADP-ribose] polymerase 1 (Homo sapiens, UniProt P09874); test: Inhibition of full length recombinant human N-terminal GST-tagged PARP1 expressed in Baculovirus infected Sf9 cells using TACS-Sapphire as substrate measured after 1 hr by colorimetric assay
[2] = target: Poly [ADP-ribose] polymerase 2 (Homo sapiens, UniProt Q9UGN5); test: Inhibition of recombinant human N-terminal GST-tagged PARP2 (2 to 583 residues) expressed in baculovirus infected Sf9 cells measured after 1 hr by chemiluminescence assay
[3] = target: T1, Poly [ADP-ribose] polymerase tankyrase-1 (Homo sapiens, UniProt O95271); test: Inhibition of recombinant human N-terminal GST-tagged TNKS1 (1001 to 1327 residues) expressed in baculovirus infected sf9 cells using TACS-Sapphire as substrate measured after 30 mins by colorimetric assay
T1 sequence (O95271 whole entry): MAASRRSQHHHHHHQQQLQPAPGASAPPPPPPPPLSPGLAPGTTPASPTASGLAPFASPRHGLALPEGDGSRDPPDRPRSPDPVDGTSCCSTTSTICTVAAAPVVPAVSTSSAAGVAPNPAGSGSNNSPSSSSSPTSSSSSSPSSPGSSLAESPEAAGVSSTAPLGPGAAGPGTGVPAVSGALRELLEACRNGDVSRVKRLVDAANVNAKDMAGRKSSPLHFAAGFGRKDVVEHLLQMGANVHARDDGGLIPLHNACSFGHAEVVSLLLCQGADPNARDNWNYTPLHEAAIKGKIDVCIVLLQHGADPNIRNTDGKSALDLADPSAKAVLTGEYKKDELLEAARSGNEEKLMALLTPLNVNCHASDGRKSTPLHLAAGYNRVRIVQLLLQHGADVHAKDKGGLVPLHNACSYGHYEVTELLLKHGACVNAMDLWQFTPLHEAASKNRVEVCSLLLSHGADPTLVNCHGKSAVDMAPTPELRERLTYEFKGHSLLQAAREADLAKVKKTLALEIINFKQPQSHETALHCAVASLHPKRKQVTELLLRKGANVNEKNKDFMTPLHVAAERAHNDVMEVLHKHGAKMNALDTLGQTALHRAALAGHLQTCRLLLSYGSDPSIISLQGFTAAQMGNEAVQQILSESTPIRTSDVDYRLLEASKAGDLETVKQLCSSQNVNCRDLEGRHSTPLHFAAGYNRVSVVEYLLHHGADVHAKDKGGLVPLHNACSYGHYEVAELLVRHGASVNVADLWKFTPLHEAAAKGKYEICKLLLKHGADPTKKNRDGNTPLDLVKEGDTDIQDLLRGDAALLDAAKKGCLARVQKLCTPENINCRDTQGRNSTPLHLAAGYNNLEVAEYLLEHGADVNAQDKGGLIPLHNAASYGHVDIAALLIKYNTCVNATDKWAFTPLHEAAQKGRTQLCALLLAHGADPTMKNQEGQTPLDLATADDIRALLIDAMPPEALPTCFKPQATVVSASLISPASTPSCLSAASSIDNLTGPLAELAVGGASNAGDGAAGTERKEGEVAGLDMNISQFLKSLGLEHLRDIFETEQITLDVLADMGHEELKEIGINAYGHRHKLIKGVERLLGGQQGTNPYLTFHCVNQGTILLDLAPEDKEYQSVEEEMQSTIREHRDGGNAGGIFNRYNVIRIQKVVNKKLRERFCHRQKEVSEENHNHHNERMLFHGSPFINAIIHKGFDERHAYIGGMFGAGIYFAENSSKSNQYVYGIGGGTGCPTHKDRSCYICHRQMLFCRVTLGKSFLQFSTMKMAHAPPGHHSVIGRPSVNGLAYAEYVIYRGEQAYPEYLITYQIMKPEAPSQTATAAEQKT

[4] = target: T2, Poly [ADP-ribose] polymerase tankyrase-2 (Homo sapiens, UniProt Q9H2K2); test: Inhibition of recombinant human N-terminal His-GST-tagged TNKS2 (849 to 1166 residues) expressed in baculovirus infected Sf9 cells using biotinylated NAD+ as substrate measured after 2 hrs
T2 sequence (Q9H2K2 whole entry): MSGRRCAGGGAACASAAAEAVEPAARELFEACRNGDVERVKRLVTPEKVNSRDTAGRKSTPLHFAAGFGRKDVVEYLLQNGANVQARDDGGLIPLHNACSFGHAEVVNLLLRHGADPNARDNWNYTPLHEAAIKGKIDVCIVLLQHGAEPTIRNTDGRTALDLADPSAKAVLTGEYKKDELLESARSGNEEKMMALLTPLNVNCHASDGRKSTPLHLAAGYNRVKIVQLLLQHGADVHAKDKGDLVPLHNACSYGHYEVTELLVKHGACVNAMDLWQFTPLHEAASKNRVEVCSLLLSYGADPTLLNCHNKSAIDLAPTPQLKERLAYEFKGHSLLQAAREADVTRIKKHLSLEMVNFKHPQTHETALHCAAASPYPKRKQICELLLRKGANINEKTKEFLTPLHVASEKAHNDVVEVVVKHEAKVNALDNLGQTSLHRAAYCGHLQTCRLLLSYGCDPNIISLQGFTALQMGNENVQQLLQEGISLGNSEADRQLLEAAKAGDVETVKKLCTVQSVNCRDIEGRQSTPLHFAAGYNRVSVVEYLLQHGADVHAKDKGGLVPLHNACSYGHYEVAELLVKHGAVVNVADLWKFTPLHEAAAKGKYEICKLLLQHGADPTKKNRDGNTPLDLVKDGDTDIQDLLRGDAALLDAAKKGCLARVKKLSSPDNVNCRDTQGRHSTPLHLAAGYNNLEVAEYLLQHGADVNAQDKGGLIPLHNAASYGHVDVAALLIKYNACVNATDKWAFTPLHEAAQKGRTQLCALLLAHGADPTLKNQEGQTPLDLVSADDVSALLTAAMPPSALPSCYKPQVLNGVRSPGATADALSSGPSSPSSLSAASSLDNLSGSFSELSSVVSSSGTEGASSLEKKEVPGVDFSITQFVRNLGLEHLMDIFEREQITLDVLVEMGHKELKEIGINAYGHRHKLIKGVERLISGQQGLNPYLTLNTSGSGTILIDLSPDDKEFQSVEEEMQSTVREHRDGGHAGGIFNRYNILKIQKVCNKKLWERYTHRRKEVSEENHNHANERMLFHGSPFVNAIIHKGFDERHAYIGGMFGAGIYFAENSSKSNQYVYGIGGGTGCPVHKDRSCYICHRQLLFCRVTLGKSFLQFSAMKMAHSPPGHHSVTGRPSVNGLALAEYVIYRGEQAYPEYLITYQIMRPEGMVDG

Poly [ADP-ribose] polymerase 2, sequence (Q9UGN5 whole entry, the tested form may be a part): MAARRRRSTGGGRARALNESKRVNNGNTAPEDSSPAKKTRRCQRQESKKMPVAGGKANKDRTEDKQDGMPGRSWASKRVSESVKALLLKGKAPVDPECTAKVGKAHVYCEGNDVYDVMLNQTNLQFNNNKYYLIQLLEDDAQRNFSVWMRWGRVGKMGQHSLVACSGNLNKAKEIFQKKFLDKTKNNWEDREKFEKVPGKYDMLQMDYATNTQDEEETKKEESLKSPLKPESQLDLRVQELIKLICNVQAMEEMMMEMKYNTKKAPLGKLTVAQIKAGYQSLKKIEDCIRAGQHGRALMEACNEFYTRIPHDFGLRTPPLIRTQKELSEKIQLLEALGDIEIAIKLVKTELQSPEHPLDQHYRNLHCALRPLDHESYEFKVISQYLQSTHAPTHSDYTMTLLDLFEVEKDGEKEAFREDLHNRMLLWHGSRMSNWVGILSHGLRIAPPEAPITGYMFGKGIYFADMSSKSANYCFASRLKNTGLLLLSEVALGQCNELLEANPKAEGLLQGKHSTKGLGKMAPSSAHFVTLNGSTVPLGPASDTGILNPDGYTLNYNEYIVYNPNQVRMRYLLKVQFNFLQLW
Poly [ADP-ribose] polymerase 1, sequence (P09874 whole entry, the tested form may be a part): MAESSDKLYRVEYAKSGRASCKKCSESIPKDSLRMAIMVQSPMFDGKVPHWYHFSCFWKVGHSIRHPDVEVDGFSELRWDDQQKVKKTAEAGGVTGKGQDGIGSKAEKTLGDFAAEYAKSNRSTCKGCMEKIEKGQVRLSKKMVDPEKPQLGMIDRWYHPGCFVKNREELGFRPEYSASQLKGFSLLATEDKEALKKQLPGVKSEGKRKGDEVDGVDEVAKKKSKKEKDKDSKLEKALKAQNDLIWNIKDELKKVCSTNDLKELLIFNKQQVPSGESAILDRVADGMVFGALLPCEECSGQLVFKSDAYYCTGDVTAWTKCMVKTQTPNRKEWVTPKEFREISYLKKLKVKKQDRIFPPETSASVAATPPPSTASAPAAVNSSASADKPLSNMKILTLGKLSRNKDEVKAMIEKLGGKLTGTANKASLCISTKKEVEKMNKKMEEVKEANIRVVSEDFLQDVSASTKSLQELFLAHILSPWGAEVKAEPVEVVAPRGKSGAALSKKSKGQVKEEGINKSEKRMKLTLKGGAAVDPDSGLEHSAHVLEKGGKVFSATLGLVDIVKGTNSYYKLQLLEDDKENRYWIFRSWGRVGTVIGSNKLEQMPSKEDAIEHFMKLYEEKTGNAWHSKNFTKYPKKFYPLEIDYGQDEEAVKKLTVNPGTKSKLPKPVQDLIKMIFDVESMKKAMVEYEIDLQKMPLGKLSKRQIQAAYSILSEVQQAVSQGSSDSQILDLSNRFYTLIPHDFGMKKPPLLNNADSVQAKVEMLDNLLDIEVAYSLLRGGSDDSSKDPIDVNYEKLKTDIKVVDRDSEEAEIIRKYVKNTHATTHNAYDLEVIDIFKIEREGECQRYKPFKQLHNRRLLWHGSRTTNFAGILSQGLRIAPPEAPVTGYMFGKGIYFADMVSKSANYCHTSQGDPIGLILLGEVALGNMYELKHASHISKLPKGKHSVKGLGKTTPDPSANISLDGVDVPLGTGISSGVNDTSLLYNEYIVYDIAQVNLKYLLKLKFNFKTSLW

For O=C(O)CCc1nc(O)c2ccccc2n1, the IC50 ([1]; read-out: IC50) was 6.7 µM, the IC50 [2] was 125 nM and the IC50 [3] was over 100 µM. It also gave an IC50 [4] of over 100 µM.

Cc1cccc2c(=O)[nH]c(CCC(=O)O)nc12 was tested, and the IC50 ([1]; read-out: IC50) was 1 µM, the IC50 ([1]; read-out: pIC50 (converted)) was 6.61 µM and the IC50 [2] was 145 nM. For the same compound, the IC50 [3] was over 100 µM and the IC50 [4] was over 100 µM.

With O=C(Nc1cccc2cccnc12)c1ccc(N2C(=O)[C@@H]3[C@@H]4CC[C@@H](C4)[C@@H]3C2=O)cc1 the IC50 ([1]; read-out: IC50) was over 100 µM, the IC50 [2] was over 100000 nM and the IC50 [3] was 0.343 µM.

Compound Nc1ccc(C(=O)Nc2cccc3cccnc23)cc1 has an IC50 ([1]; read-out: IC50) of over 100 µM and an IC50 [3] of over 100 µM.
